The values below come from patent US8969336B2, “Diamino heterocyclic carboxamide compound” (Astellas Pharma Inc., priority 2009, dated 2015).

Assay [1] deals with BA/F3 cells expressing EML4-ALK fusion protein v1. As to the kind of experiment: Growth inhibitory activity against EML4-ALK fusion protein-dependent cells. As to conditions: Mus musculus, BaF3, 48 h, growth of EML4-ALK fusion protein v1-expressing BA/F3 cells, cultured 2 days. It counts as cell-based, mouse. The procedure: EML4-ALK fusion protein v1-expressing BA/F3 cells can grow in the absence of IL-3. In other words, they are cells that EML4-ALK fusion protein v1-dependently grow.
In a 96-well plate (Iwaki), BA/F3 cells expressing EML4-ALK fusion protein v1 were seeded at 500 cells per well in RPMI1640 medium (Invitrogen) containing 10% fetal bovine serum, followed by addition of a test compound (final concentration: 10 μM to 0.1 nM). As a negative control, DMSO used as a solvent of the test compound was added. Then, the cells were cultured under 5% CO2 at 37° C. for 2 days. A cell counting reagent (AlmarBlue; Biosource) was added, and the cells were cultured for 150 minutes, followed by measurement of fluorescence intensity with a […] (Safire; Tecan) in accordance with instructions attached to the reagent.

The target of assay [2] is EML4-ALK fusion protein v1 (Homo sapiens (Human), UniProt Q9UM73). As to the kind of experiment: Inhibitory activity against the kinase activity of EML4-ALK fusion protein (HTRF KinEASE-TK). It counts as biochemical. As to conditions: ATP 100 μM, reaction 1 hour. The text has this:
A recombinant retrovirus was created from expression plasmid FLAG-EML4-ALKv1/pMX-iresCD8 in which cDNA for EML4-ALK fusion protein v1 was integrated, and injected into mouse lymphoid cell line BA/F3 cells. Using a magnetic bead reagent for cell separation and a purification column (anti-CD8 monoclonal antibody immobilized on magnetic beads and a MiniMACS purification column; both are products of Miltenyi Biotec Inc.), cell surface CD8-expressing cells were purified to establish EML4-ALK fusion protein v1-expressing BA/F3 cells. From the cells, EML4-ALK fusion protein v1 was purified and subjected to kinase activity evaluation. EML4-ALK fusion protein v1 was investigated for its phosphorylation activity toward a peptide substrate by using a kinase activity detection kit (HTRF KinEASE-TK; Cisbio Inc.). […] The ATP concentration used was 100 μM.
(TR-FRET usually uses a lanthanide donor and a delayed reading to cut background.)

Assay [3] concerns human non-small cell lung cancers cell line NCI-H2228 cells. As to the kind of experiment: Antitumor test (in vivo) on NCI-H2228 cells. As to conditions: NOD/SCID mice; for growth inhibition against NCI-H2228 cells (tumor) compared with the solvent group: oral administration, Student's t-test. The text has this: The antitumor effects on EML4-ALK fusion protein-dependent cells can also be confirmed by use of human non-small cell lung cancers cell line NCI-H2228 cells (cells derived from EML4-ALK fusion polynucleotide-positive lung cancer patients (EML4-ALK fusion protein v3-dependent cells)) in place of the EML4-ALK fusion protein v1 expressing 3T3 cells of Test Example 3, as shown below.
3×10^6 cells of NCI-H2228 cells suspended in 50% Matrigel (Invitrogen) were inoculated subcutaneously by injection to the back of 5 weeks old male NOD/SCID mice (Charles River Japan, Inc.). After 3 weeks of the inoculation, the administration of test compounds was initiated. The test was conducted in the solvent group and test compound groups, 6 animals per group. The test compounds were each dissolved in a solvent composed of 10% 1-methyl-2-pyrrolidinone (SIGMA-ALDRICH Inc.)/90% polyethylene glycol 300 (Fluka Inc.) and administered orally at a dose of 1 mg/kg. Administrations were performed once a day for 14 days, and body weight and tumor size were measured every other day. Tumor volume was calculated using the following formula. [Tumor volume(mm^3)]=[Tumor major axis(mm)]×[tumor minor axis(mm)]^2×0.5

For a further assay, the target named is ROS protein (Homo sapiens (Human), UniProt P08922). Nature of the assay: Inhibitory activity against the kinase activity of ROS protein. It counts as biochemical. The conditions noted are these: ROS kinase domain, ATP 50 uM.
ROS protein, sequence (P08922 1945-2222): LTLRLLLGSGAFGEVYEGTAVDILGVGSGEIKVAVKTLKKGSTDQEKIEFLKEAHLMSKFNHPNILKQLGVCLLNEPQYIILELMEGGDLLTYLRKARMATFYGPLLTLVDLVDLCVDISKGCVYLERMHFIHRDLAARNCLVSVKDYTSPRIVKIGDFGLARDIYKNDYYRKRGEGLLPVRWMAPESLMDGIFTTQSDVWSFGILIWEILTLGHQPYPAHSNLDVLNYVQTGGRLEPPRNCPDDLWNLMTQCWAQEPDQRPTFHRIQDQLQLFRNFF
The next assay deals with RET protein (Homo sapiens (Human), UniProt P07949). Nature of the assay: Inhibitory activity against the kinase activity of RET protein. The assay is classed as biochemical. The conditions noted are these: RET kinase domain, ATP 100 μM, reaction 30 minutes.
RET protein, sequence (P07949 724-1016): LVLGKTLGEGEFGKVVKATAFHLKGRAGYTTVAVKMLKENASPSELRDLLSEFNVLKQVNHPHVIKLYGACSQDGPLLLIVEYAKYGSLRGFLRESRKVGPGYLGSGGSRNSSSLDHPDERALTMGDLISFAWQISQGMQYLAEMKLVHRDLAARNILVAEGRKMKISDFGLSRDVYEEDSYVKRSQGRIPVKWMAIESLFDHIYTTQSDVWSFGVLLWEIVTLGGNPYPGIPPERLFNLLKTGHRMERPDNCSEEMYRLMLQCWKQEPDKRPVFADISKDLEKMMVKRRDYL
Assay [4] relates to EML4-ALK fusion protein v1 expressing 3T3 cells. Nature of the assay: Antitumor test (in vivo) on EML4-ALK fusion protein v1 expressing 3T3 cells. As to conditions: oral 10 mg/kg once a day for 5 days, Balb/c nude mice, EML4-ALK v1 3T3 tumor; values marked (regression). From the text: Expression plasmid EML4-ALKv1/pMXS in which cDNA for EML4-ALK fusion protein v1 was integrated was trasfected into 3T3 fibroblast cells by the phosphate calcium method to thereby establish EML4-ALK fusion protein v1 expressing 3T3 cells. 3×10^6 cells of EML4-ALK fusion protein v1 expressing 3T3 cells suspended in PBS were inoculated subcutaneously by injection to the back of 5 weeks old male Balb/c nude mice (Charles River Japan, Inc.). After 7 days of the inoculation, the administration of test compound was initiated. The test was conducted in the solvent group and the compound group, 4 animals per group. The test compound was suspended in a solvent composed of 0.5% methylcellulose and administered orally at a dose of 10 mg/kg. Administrations were performed once a day for 5 days, and body weight and tumor size were measured every other day. Tumor volume was calculated using the following formula. [Tumor volume(mm^3)]=[Tumor major axis(mm)]×[tumor minor axis(mm)]^2×0.5
When regression of tumor volume is induced from the day of starting administration, the tumor volume on the day of starting administration and the state in which the tumor disappeared were assumed to be 0% regression and 100% regression, respectively, and the rate of regression of the test compound was calculated.

A value given as a limit tells only on which side of the number the result lay.

EML4-ALK fusion protein v1, sequence (Q9UM73 other isoform, or with tags, fused parts or gaps): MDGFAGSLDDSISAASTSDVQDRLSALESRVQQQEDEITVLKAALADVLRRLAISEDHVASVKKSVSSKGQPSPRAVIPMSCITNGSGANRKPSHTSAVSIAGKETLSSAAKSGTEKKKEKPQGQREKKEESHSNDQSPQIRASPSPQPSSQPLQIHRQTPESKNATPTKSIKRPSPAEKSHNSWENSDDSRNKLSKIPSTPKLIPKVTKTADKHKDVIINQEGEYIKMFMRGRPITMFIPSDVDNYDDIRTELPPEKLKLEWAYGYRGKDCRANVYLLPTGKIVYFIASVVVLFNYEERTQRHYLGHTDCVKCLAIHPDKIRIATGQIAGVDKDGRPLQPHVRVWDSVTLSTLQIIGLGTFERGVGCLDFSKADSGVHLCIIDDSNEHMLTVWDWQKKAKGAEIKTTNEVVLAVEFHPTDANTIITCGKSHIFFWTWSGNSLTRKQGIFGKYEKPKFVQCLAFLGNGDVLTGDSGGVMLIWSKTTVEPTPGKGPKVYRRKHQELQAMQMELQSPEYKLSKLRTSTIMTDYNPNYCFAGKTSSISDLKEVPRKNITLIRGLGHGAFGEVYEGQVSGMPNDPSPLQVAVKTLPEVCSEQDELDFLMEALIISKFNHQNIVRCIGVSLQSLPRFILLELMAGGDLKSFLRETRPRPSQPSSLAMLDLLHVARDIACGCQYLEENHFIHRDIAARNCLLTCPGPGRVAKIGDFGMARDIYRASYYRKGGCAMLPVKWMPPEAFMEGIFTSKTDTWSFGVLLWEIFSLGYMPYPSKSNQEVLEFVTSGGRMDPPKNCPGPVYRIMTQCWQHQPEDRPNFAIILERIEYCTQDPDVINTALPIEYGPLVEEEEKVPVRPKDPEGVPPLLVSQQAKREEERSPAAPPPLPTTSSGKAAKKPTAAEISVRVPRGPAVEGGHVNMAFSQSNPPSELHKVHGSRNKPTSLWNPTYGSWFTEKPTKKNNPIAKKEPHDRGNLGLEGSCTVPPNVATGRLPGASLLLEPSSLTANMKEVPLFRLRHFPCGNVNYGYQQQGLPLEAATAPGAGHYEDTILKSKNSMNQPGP

As for `NC(=O)c1cnc(N[C@@H]2CCCC[C@@H]2N)nc1Nc1ccc(-c2ccc(N3CCOCC3)cc2)cc1` (racemic) [Compound X, rac-2-{[(1R,2S)-2-aminocyclohexyl]amino}-4-{[4′-(morpholin-4-yl)biphenyl-4-yl]amino}pyrimidine-5-carboxamide, reference compound], the 50% inhibitory concentration (IC50) (usually the point on the concentration scale where inhibition reaches its midpoint) in assay [1] amounted to 0.821 µM; in assay [2], 0.22 µM. In addition, in assay [3], the “growth inhibition against NCI-H2228 cells (tumor) compared with the solvent group” value is “no significant growth inhibition”.
Regarding `CCc1nc(C(N)=O)c(Nc2cccc(C)c2)nc1NCCN(C)C` [Compound Y, 5-{[2-(dimethylamino)ethyl]amino}-6-ethyl-3-[(3-methylphenyl)amino]pyrazine-2-carboxamide, reference compound], the IC50 in assay [1] and in assay [2] was above 1 µM throughout. For the same compound, in assay [3], the “growth inhibition against NCI-H2228 cells (tumor) compared with the solvent group” value is given as “no significant growth inhibition”.
As for `CCc1nc(C(N)=O)c(Nc2ccc(N3CCC(N4CCN(C)CC4)CC3)c(OC)c2)nc1NC1CCOCC1` [Example 577], the results for the IC50 against ROS protein and at RET protein were 0.0019 µM and 0.0034 µM, respectively.
As for `CC(C)c1nc(C(N)=O)c(Nc2ccc(N3CCC(N4CCN(C)CC4)CC3)cc2)nc1NC1CCOCC1` [Example 549], the results for the IC50 in assay [1] and in assay [2] were 0.014 µM and 0.0021 µM, respectively. In addition, in assay [4], the “rate of regression (tumor volume)” value is given as 67 (regression) %. Further, the “inhibition rate of growth of tumor of NCI-H2228 cells” value in assay [3] (oral 1 mg/kg once a day for 14 days) worked out at 69%.
